On to `CC(C)c1ccc2nc3ccc(C(=O)OCCCc4cccnc4)cn3c(=O)c2c1`, for which the melting point (as a rule, the temperature, or range, at which the solid turns liquid) is 108 to 109 °C. To `CCS(=O)(=O)Nc1ccc2[nH]cc(C3=CCN(C)CC3)c2c1` belongs 224 to 226 °C; to `Cc1[nH]nc(C(C)C)c1Oc1cc(C#N)cc(C#N)c1`, 142 to 144 °C; to `O=C(O)COc1ccccc1C(=O)NCc1ccc(Br)cc1F`, 144 to 145 °C. The same measure for `O=C1NC(=O)c2ccc(-c3ccc(F)cc3)cc2/C1=C/Nc1ccc(CN2CCCC2)cc1`: 152 to 153 °C; for `CC(=O)Oc1c(C)cc(C(=O)Nc2c(CO)nc3c(C)cc(C)cc3c2-c2ccccc2Cl)cc1C`: 134 to 136 °C.

For `C[C@H](Cn1ncc2ccc3c(c21)C=CCO3)O[Si](C)(C)C(C)(C)C`, the melting point was in the range of 58 to 59 °C. To `CCCNC(=O)C(C)Cc1ccc2cccc(Cc3ccc(C(=O)NS(=O)(=O)c4ccccc4)cc3OC)c2c1` (stereo unspecified) belongs 214 to 218 °C; to `COC1OC(=O)c2cccc([N+](=O)[O-])c21` (stereo unspecified), 115 to 118 °C; to `O=C1CCC(c2ccccc2)(c2ccccc2)C2CN(C(Cc3ccccc3)=NCc3ccccc3F)CC12` (stereo unspecified), 160 °C. Consider `CCCCc1oc2ccccc2c1-c1ncc(-c2ccc3cc(OCC#N)ccc3c2)o1`, for which the melting point was 127 °C. To `CCOC(=O)C(Cc1cc(Oc2c(Cl)cc(C(F)(F)F)cc2Cl)ccc1SC(F)(F)F)C(=O)OCC` belongs 83 °C; to `Cc1cc(C(C)(C)C)c(O[Si](C)(C)Cl)c(C(C)(C)C)c1`, 119 to 121 °C.

`CC(=O)Oc1cccc(C(=O)N[C@@H](Cc2ccccc2)[C@H](OC(C)=O)C(=O)O)c1C` had a melting point of 152 to 154 °C. The same measure for `CC(C)(C)OC(=O)NC(CO)COc1noc2ccc(Cl)cc12` (stereo unspecified): 121 to 122 °C; for `c1ccc2c(c1)C[C@H]1CSC(=Nc3cccc4ccncc34)N1C2`: 206 °C; for `Cc1cccc(-c2nc(O)cc(-c3ccccc3Cl)n2)n1`: 196 °C.

`CCOC1=CC2=CCC3C(CCC4(C)C3CCC4(C)C(C)=O)C2(C)CC1` (stereo unspecified) had a melting point of 114 to 116 °C. The compound `Clc1cc2ccccc2c(N2CCSCC2)n1` gave a melting point of 133 °C.

The compound `CCN(CC)CCNC(=O)N1CCCC(S(=O)(=O)c2ccc(C)cc2)C1` (stereo unspecified) returned a melting point of 116 to 118 °C. To `Cc1cc(I)ccc1Nc1c(C2=NC(C)(C)CO2)ccc(F)c1F` belongs 104 °C; to `O=Cc1c2n(c3cc(Br)ccc13)CCNCC2`, 186 to 188 °C; to `COc1ccc(CNc2n[nH]c3ncnc(Nc4cccc(Cl)c4)c23)cc1O`, 225 to 227 °C. In the case of `CC#CCOc1ccc(S(=O)(=O)N2CCOCC2C(=O)O)cc1` (stereo unspecified), the melting point was 40 to 42 °C. The same measure for `O=C(NCc1cccnc1)c1cnc(N2CCN(CC3CC3)C2=O)s1`: 190 to 192 °C; for `CSc1ccccc1C(=O)Nc1ccccc1`: 148 to 149 °C. The same measure for `CCOC(=O)C1(c2ccc(Cl)cc2)OCC2(CO1)c1ccccc1Oc1ccccc12`: 131 to 132 °C. `COc1cc(OC)c(-c2ccc(N(C)CCN(C)c3ccc(-c4c(OC)cc(OC)cc4OC)nc3)cn2)c(OC)c1` gave a melting point of 264 to 265 °C. Regarding `CCCc1c(C(=O)NCc2ccc3c(Br)c(OCC#N)ccc3c2)cnn1-c1ccccc1`, the melting point was 175 to 176 °C.

`C[C@H](NC(=O)C12CC3CC(CC(C3)C1)C2)C(=O)N1CCC[C@H]1C(=O)Nc1ccccc1` returned a melting point of 119 to 121 °C. `CC(=O)OC1CCC2(C)C(=CCC3C4=CCC(C(C)=O)C4(C)CCC32)C1` (stereo unspecified) showed a melting point of 205 to 208 °C.

In turn, `CCc1nn(C2CN(C(C)C)C2)c(C(N)=O)c1NC(=O)c1cc(S(C)(=O)=O)ccc1OCC(C)C` yielded a melting point of 185 to 189 °C. As to `N#Cc1c(N2CCN(C(=O)c3ccco3)CC2)c2cc(Cl)cnc2n(Cc2ccccc2)c1=O`, the melting point was 196 °C. To `COCCOc1cc(N(C)S(=O)(=O)c2ccccn2)c2[nH]c(C3=NCC(CN4CCS(=O)(=O)CC4)S3)cc2c1` (stereo unspecified) belongs 115 °C; to `O=C1c2c(Cl)cccc2-n2cnc(-c3nc(C4CCCC4)no3)c2[C@@H]2CCCN12`, 177 to 178 °C; to `CC(C)(C)c1cc(OCCCCCCC(=O)O)cc(C(C)(C)C)c1`, 88 to 90 °C.

`O=C(O)c1cnncc1C(=O)c1cc(F)ccc1F` displayed a melting point of 202 to 205 °C.

The compound `O=c1oc(-c2ccc(NS(=O)(=O)c3ccccc3)cc2)cc(O)c1SCCc1ccccc1` registered a melting point of 89 to 91 °C. Compound `COC(=O)c1c(-c2ccc(C#N)cc2)cn(-c2ccc(Br)cc2)c1C(=O)OC` showed a melting point of 178 to 180 °C. In turn, `Cc1ccc(O)c(-c2nc(-c3cc(C)ccc3O)n(-c3ccc(C(=O)O)cc3)n2)c1` came in with a melting point of 268 to 269 °C. Consider `CCCN(CCN1CCN(C(=O)c2ccc3[nH]ccc3c2)CC1)C1CCc2ccc(O)cc2C1` (stereo unspecified), for which the melting point was 194 to 199 °C. `Nn1c(=O)c(=O)[nH]c2c(Br)cc(F)cc21` yielded a melting point of 293 to 295 °C. The same measure for `CCc1c(C=O)c2ccc(C(N)=O)cc2n1Cc1ccccc1Cl`: 260 to 261 °C; for `CCCCc1nc2cnc3cccnc3c2n1CCOc1ccccc1`: 150 °C; for `Cc1ccc(C(=O)c2ccc3[nH]cc(C4CCN(C)CC4)c3c2)cc1`: 92 °C.

For `CNC1CC=C(c2c[nH]c3ccc(NC(=N)c4cccs4)cc23)CC1` (stereo unspecified), the melting point was 167 to 169 °C.

Consider `CCOC(=O)c1cnc2nn(C)cc2c1NC`, for which the melting point lay in the range of 178 to 180 °C. `O=C(c1ccccc1)c1cc([N+](=O)[O-])ccc1NCc1ccccc1` displayed a melting point of 120 °C. Compound `CC(C)(C)OC(=O)C=Cc1ccc(NC(=O)C=C2CC(C(=O)OCc3ccccc3)Nc3cc(Cl)cc(Cl)c32)cc1` (racemic) gave a melting point of 85 °C. In the case of `O=C(O)COc1ccc(C(=O)O)c(Cl)c1Cl`, the melting point was > 250 °C. The same measure for `Clc1ccc(Oc2nc(Cl)nc(Cl)n2)c(Cl)c1`: 120 to 122 °C; for `NC(=O)c1ccc(O[C@@H]2CNC[C@H]2O)cc1` (relative stereo): 202 to 203 °C; for `CC(C)n1nc(-c2sc(NC(=O)c3ccc(CN(C)CCN(C)C)cc3)nc2-c2ccccc2)ccc1=O`: 131 to 133 °C. On to `N#Cc1cc(C=O)ccc1-n1cnc([N+](=O)[O-])n1`, for which the melting point fell in the range of 170 to 172 °C. To `COc1cccc(NC(=O)N[C@H]2C[C@@](N)(C(=O)O)[C@@H]3[C@@H](C(=O)O)[C@@H]32)c1` (relative stereo) belongs > 250 °C; to `CCOC(=O)C1OC(n2cnc3c(N)ncnc32)C(O)C1N` (stereo unspecified), 179 to 182 °C. The same measure for `CCCCCS(=O)(=O)NC(=O)/C=C/c1cc(OCCCC)nn1Cc1ccc(C(F)(F)F)cc1`: 159 to 160 °C. To `CCOC(=O)c1ccc(/C=C(\C)C=O)c(OC)c1` belongs 59 to 61 °C; to `CN(C)C(=O)c1ccc(F)c2c1CC(N(CCCc1c[nH]c3ccc(F)cc13)C1CCC1)CO2` (stereo unspecified), 126 °C; to `ON=Cc1cccc(Oc2ccccc2)c1`, 45 to 46 °C. The compound `ClCC=C(c1ccc(Br)cc1)c1cccnc1` had a melting point of 156 to 159 °C. `O=C(O)c1ccc2c(c1)S(=O)(=O)c1ccc([N+](=O)[O-])cc1C=C2` yielded a melting point of 310 to 312 °C.

Turning to `CCCc1nnc2ccc(-c3ccc(C(F)(F)F)cc3)nn12`, the melting point lay in the range of 173 to 175 °C. The same measure for `CN(CCOc1ccc(CC(F)C(N)=O)cc1)c1nc2ccccc2o1` (stereo unspecified): 168 to 170 °C; for `CCCCC1(CCCC)Cc2c(O)cccc2C1=O`: 114 to 115 °C. With `CSc1ccc(C=CC(=O)c2cccc(Br)c2)cc1`, the melting point came to 148 °C. The same measure for `CC(=O)Oc1ccccc1C1SC[C@@H](C(=O)O)N1C(=O)CCSC(C)=O` (stereo partly specified): 144 to 145 °C; for `O=c1nc(-c2ccccc2)c2cc([N+](=O)[O-])ccc2n1Cc1cccs1`: 219 to 220 °C; for `Cc1cc(C)c(C(=O)c2cc(C(C)(C)C)c(O)c(C(C)(C)C)c2)c(Cl)n1`: 109 to 110 °C.

`COC12CC(CCOC(=O)c3ccc[nH]3)CN(C)C1Cc1cn(C)c3cccc2c13` (stereo unspecified) had a melting point of 148 to 149 °C. To `CC(=O)OCCOCc1nc2nccnc2c(=O)[nH]1` belongs 157 to 159 °C; to `CSc1ccc2ncn(CCN3CCC(Nc4nc5ccccc5n4Cc4ccc(F)cc4)CC3)c(=O)c2c1`, 101 °C. For `COP(=O)(CC(O)c1c(C(C)C)nn(-c2ccccc2)c1-c1ccc(F)cc1)OC` (stereo unspecified), the melting point fell in the range of 126 to 128 °C. The same measure for `CC(C)Cc1cc2cc(O)c(Cl)c(Cl)c2s1`: 58 to 59 °C; for `C=C(C#N)CN1CCC(C(=O)O)CC1`: 109 to 111 °C. To `CCC(COC(C)=O)Nc1c(-c2c(F)cc(F)cc2F)c(Cl)nc2ncnn12` (stereo unspecified) belongs 39 to 42 °C; to `Oc1ccc(-c2nc(-c3cccs3)c[nH]2)cc1Cl`, 152 to 153 °C; to `CC(C)(C)n1nnc(-c2ccc(CNc3n[nH]c4ncnc(Nc5cccc(Cl)c5)c34)cc2)n1`, 168 to 170 °C.

In turn, `Cc1ccc(-c2n[nH]cc2C=O)s1` showed a melting point of 97 to 99 °C. To `O=C1N[C@H](Cc2ccc(C(F)(F)F)o2)[C@H](c2ccc(F)cc2)O1` (racemic) belongs 177 to 179 °C. Take `CCCCc1nn(-c2ccc(C(F)(F)F)cn2)cc1CCCOc1nn(CC)cc1CC(=O)O`: the melting point was in the range of 109 to 110 °C. To `CN1CCC(c2c(O)cc(O)c3c(=O)cc(-c4ccc(O)cc4Cl)oc23)C1CO` (stereo unspecified) belongs > 300 °C; to `C=C(C)C(=O)NC1=NN(c2ccc(Cl)c(Cl)c2)C(=O)C1`, 212 to 213 °C.

`Cc1ccccc1Nc1nc(N(C)c2ccccc2)c2cccc(OCCCN(C)C)c2n1` had a melting point of 77 to 79 °C. The same measure for `CCOc1ccc([N+](=O)[O-])c(Nc2ccc(OC)cc2)c1`: 109 °C; for `C=C=COc1ccc(-c2ccc(OC=C=C)cc2)cc1`: 135 to 138 °C.
